PubChem BioAssay (NCI)
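Five compound concentrations were applied to cells in 96-well plates for 48 hours; endpoints were derived by simple linear interpolation of the resulting dose-response curve. Definition used: TGI = concentration required for complete inhibition of growth.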

Assays:
Test in all cases: NCI tumour cell line growth inhibition, 48 h
LOX IMVI melanoma = system: LOX IMVI melanoma
HT29 colon = system: HT29 colon
SK-MEL-28 melanoma = system: SK-MEL-28 melanoma
HCT-15 colon = system: HCT-15 colon
M14 melanoma = system: M14 melanoma
RXF 393 renal = system: RXF 393 renal
NCI-H226 lung = system: NCI-H226 lung
TK-10 renal = system: TK-10 renal
COLO 205 colon = system: COLO 205 colon
MALME-3M melanoma = system: MALME-3M melanoma
CAKI-1 renal = system: CAKI-1 renal
U251 CNS = system: U251 CNS
IGROV1 ovarian = system: IGROV1 ovarian
HOP-92 NSCLC = system: HOP-92 NSCLC
UO-31 renal = system: UO-31 renal
DMS 273 small cell lung = system: DMS 273 small cell lung
SNB-19 CNS = system: SNB-19 CNS
EKVX NSCLC = system: EKVX NSCLC
T-47D breast = system: T-47D breast
PC-3 prostate = system: PC-3 prostate

SMILES	TGI (LOX IMVI melanoma)	TGI (HT29 colon)	TGI (SK-MEL-28 melanoma)	TGI (HCT-15 colon)	TGI (M14 melanoma)	TGI (RXF 393 renal)	TGI (NCI-H226 lung)	TGI (TK-10 renal)	TGI (COLO 205 colon)	TGI (MALME-3M melanoma)	TGI (CAKI-1 renal)	TGI (U251 CNS)	TGI (IGROV1 ovarian)	TGI (HOP-92 NSCLC)	TGI (UO-31 renal)	TGI (DMS 273 small cell lung)	TGI (SNB-19 CNS)	TGI (EKVX NSCLC)	TGI (T-47D breast)	TGI (PC-3 prostate)
COc1cccc(NC(=O)CSc2nnc(-c3ccc(NC(C)=O)cc3)o2)c1	> 100 µM	> 100 µM	> 100 µM	> 100 µM	> 100 µM	> 100 µM	> 100 µM	> 100 µM	> 100 µM	> 100 µM	> 100 µM	> 100 µM	> 100 µM	> 100 µM	> 100 µM	> 100 µM				
CS(=O)(=O)c1ccc(-c2cc(-c3ccc(S(C)(=O)=O)cc3)[n+](-c3cc(-c4ccc(S(C)(=O)=O)cc4)c([O-])c(-c4ccc(S(C)(=O)=O)cc4)c3)c(-c3ccc(S(C)(=O)=O)cc3)c2)cc1	> 100 µM	> 100 µM	> 100 µM	> 100 µM	> 100 µM	> 100 µM	> 100 µM	> 100 µM	> 100 µM	> 100 µM	> 100 µM	> 100 µM	> 100 µM		> 100 µM	> 100 µM	> 100 µM			
CCn1c2ccccc2c2ccc3c(c21)C(=O)C=CC3=O		42.1 µM	33.3 µM	25.7 µM	14.9 µM		32.8 µM	30 µM	24.1 µM	22 µM		31.7 µM	14.8 µM	30.3 µM	21.6 µM	33.8 µM		30 µM		
CN(N=O)C(=O)ON1C(=O)CCC1=O	> 100 µM	> 100 µM	> 100 µM	> 100 µM	> 100 µM		> 100 µM	> 100 µM		> 100 µM	> 100 µM		> 100 µM	> 100 µM	> 100 µM	> 100 µM	> 100 µM	> 100 µM		
Cc1ccc(NC(Nc2ccc(C)cc2C)=C(/C=C(\Cl)[N+](=O)[O-])[N+](=O)[O-])c(C)c1	3.25 µM	18.8 µM	4.77 µM	11.5 µM	5.69 µM	3.75 µM	22.1 µM	13.2 µM	4.99 µM	7.13 µM	4.23 µM	23.6 µM	20.9 µM	3.99 µM	19.2 µM		26 µM	32.3 µM	3.99 µM	17.2 µM
CC1(C)OC(=O)C(C#N)=C1/C=C/c1coc2ccc(Cl)cc2c1=O	40.5 µM		> 100 µM	87.2 µM	> 100 µM		92.6 µM		> 100 µM	66.1 µM	57.5 µM	> 100 µM	> 100 µM		83.6 µM	> 100 µM	> 100 µM	> 100 µM		
C=C(Br)CNC(=O)Nc1ccc(Cl)c(Cl)c1	43.6 µM	73.4 µM	> 100 µM	> 100 µM	77.5 µM	40 µM	67.4 µM	62.4 µM	30.6 µM	48.6 µM	54.2 µM	66 µM	36.6 µM	41.2 µM	24.8 µM		73.5 µM	78.4 µM	> 100 µM	48 µM
CC1=NN(C(=O)c2ccncc2)C(=O)C1	> 100 µM	> 100 µM	> 100 µM	> 100 µM	> 100 µM	> 100 µM	> 100 µM	> 100 µM	> 100 µM	> 100 µM	> 100 µM	> 100 µM	> 100 µM	> 100 µM	> 100 µM		> 100 µM	> 100 µM	> 100 µM	> 100 µM
CCC1(c2ccccc2)C(=O)N=C(c2ccccc2)N1CCc1ccccc1 (stereo not drawn)	> 100 µM	> 100 µM	> 100 µM	> 100 µM	> 100 µM	> 100 µM	> 100 µM	> 100 µM	> 100 µM	> 100 µM	> 100 µM	> 100 µM	> 100 µM	> 100 µM	> 100 µM		> 100 µM	> 100 µM	> 100 µM	> 100 µM
CC1(/C=C/CCSc2ccccc2)CC(=O)C2CC1C2(C)C (stereo not drawn)	43.9 µM	29.4 µM	> 100 µM	> 96 µM	> 100 µM	> 100 µM	> 100 µM	> 70.1 µM	70.6 µM	> 69.7 µM	> 82 µM	> 83.7 µM	53.5 µM	> 75.4 µM	43.5 µM		> 100 µM	> 100 µM	> 100 µM	> 100 µM
O=C(CCCN1CCC2(CC1)CC(c1ccccc1)OC2=O)c1ccc(F)cc1 (stereo not drawn)	45.1 µM	35.2 µM	> 100 µM	> 100 µM	30.9 µM	> 100 µM	> 100 µM	> 100 µM	35.4 µM	44 µM	82.3 µM	> 100 µM	> 100 µM	76.9 µM	> 100 µM		> 100 µM	> 100 µM	69.1 µM	> 100 µM
O=C(NNCC(O)COc1ccccc1)c1ccccc1 (stereo not drawn)	> 100 µM	> 100 µM	> 100 µM	> 100 µM	> 100 µM	> 100 µM	> 100 µM	> 100 µM	> 100 µM	> 100 µM	> 100 µM	> 100 µM	> 100 µM	> 100 µM	> 100 µM		> 100 µM	> 100 µM	> 100 µM	> 100 µM
COc1ccc(C2SCC(=O)N2c2ccc(-c3ccc(-n4c(-c5ccccc5)nc5ccccc5c4=O)cc3)cc2)cc1OC (stereo not drawn)	51.5 µM	> 100 µM	> 100 µM	> 100 µM	> 100 µM	> 100 µM	> 100 µM	83.9 µM	> 100 µM	> 100 µM	> 100 µM	> 100 µM	> 100 µM	> 100 µM	> 100 µM		> 100 µM	> 100 µM	> 100 µM	> 100 µM
CC(=O)NC(CCCNC(=O)N(CCCl)N=O)C(=O)NCc1ccccc1 (stereo not drawn)		> 100 µM	> 100 µM	> 100 µM	> 100 µM	> 100 µM	> 100 µM	> 100 µM	> 100 µM	> 100 µM	> 100 µM	> 100 µM	> 100 µM	> 100 µM	> 100 µM	> 100 µM	> 100 µM	> 100 µM		
Cc1ccc(/C=C/C(=O)C(C)(C)CN2CCCCC2)cc1	23.4 µM	12 µM	33.4 µM	20.1 µM	20.2 µM	18.7 µM	27.6 µM	24.1 µM	17.2 µM	29.3 µM	14.2 µM	27.5 µM	35.6 µM		22 µM	11.7 µM	8.73 µM	14.3 µM		
Clc1ccc(Nc2nc3ccccc3nc2-c2cccs2)cc1Cl		> 100 µM	> 100 µM	> 100 µM		89.2 µM	> 100 µM	> 100 µM	> 100 µM	> 100 µM				78.8 µM	> 100 µM	> 100 µM	> 100 µM	> 100 µM		
COc1ccc(C(=O)/C=C/c2ccc(O)c(O)c2)c(OC)c1	26.4 µM	32 µM	48.4 µM	24.3 µM	19 µM	39.2 µM	22.3 µM	20.2 µM	28.8 µM	21.8 µM	34.5 µM	16.6 µM	> 100 µM	> 100 µM	41.6 µM		19.4 µM	> 79.6 µM	> 100 µM	26.4 µM
O=C(CSc1nnc(Cc2ccccc2)o1)Nc1ccccc1	> 100 µM	> 100 µM	> 100 µM	> 100 µM	> 100 µM	> 100 µM	> 100 µM	> 100 µM	> 100 µM	> 100 µM		> 100 µM	> 100 µM		> 100 µM	> 100 µM				
c1ccc2c(c1)C1CCCCCC21N1CCOCC1 (stereo not drawn)	> 100 µM	> 100 µM	> 100 µM	> 100 µM	> 100 µM	> 100 µM	> 100 µM	> 100 µM	> 100 µM		> 100 µM	> 100 µM	> 100 µM		> 100 µM	> 100 µM	> 100 µM			
CC(=O)CN(Cc1cc(C)c2c(c1)c1ccccc1n2Cc1ccccc1)S(=O)(=O)c1ccc(C)cc1		> 100 µM	> 100 µM		> 100 µM		> 100 µM	> 100 µM	> 100 µM	> 100 µM	> 100 µM		> 100 µM	> 100 µM	> 100 µM	> 100 µM	> 100 µM	> 100 µM		
COc1ccc2c(c1)C(=O)C1CC(=O)CCC21 (stereo not drawn)	> 100 µM	> 100 µM	> 100 µM	> 100 µM	> 100 µM		> 100 µM	> 100 µM	> 100 µM	> 100 µM	> 100 µM	> 100 µM	> 100 µM	> 100 µM	> 100 µM	> 100 µM	> 100 µM	> 100 µM		
